Experimental findings from ChEMBL document CHEMBL3044974, “Design, synthesis, insecticidal activity and structure-activity relationship of 3,3-dichloro-2-propenyloxy-containing phthalic acid diamide structures” (2012) are described below.

By mortality is commonly meant the share of the test organisms that died.

Assay type in all cases: functional
In assay [1] the test system is Plutella xylostella. Briefly: Insecticidal activity against Plutella xylostella (diamondback moth) third-instar larvae reared on 100 ug/mL compound pre-treated cabbage leaf disks assessed as insect mortality measured after 3 days post compound treatment by leaf dipping method.
For assay [2], the system named is Plutella xylostella. The experiment in a line: Insecticidal activity against Plutella xylostella (diamondback moth) third-instar larvae reared on 100 ug/mL compound pre-treated cabbage leaf disks assessed as insect mortality measured after 2 days post compound treatment by leaf dipping method.
Assay [3] concerns Plutella xylostella. Briefly: Insecticidal activity against Plutella xylostella (diamondback moth) third-instar larvae reared on 10 ug/mL compound pre-treated cabbage leaf disks assessed as insect mortality measured after 3 days post compound treatment by leaf dipping method.
Assay [4] has as its system Plutella xylostella. The experiment in a line: Insecticidal activity against Plutella xylostella (diamondback moth) third-instar larvae reared on 10 ug/mL compound pre-treated cabbage leaf disks assessed as insect mortality measured after 2 days post compound treatment by leaf dipping method.

`CC(C)(CS(C)(=O)=O)NC(=O)c1c(I)cccc1C(=O)Nc1ccc(OCC=C(Cl)Cl)cc1`: the mortality is on record as 60% with Plutella xylostella [1] and 15% in the assay with Plutella xylostella [2].
For the molecule `CC(C)(CS(C)(=O)=O)NC(=O)c1c(I)cccc1C(=O)Nc1ccc(OCC=C(Cl)Cl)cc1Cl`, the mortality with Plutella xylostella [3] was 20%; in the assay with Plutella xylostella [1], 100%; in the assay on Plutella xylostella [2], 75%; with Plutella xylostella [4], 0%.
For `CC(C)(CS(C)(=O)=O)NC(=O)c1c(I)cccc1C(=O)Nc1ccc(OCC=C(Cl)Cl)cc1F`, the mortality in the assay with Plutella xylostella [1] was determined as 90%; with Plutella xylostella [2] it was 55%.
Regarding `CC(C)(CS(C)(=O)=O)NC(=O)c1c(I)cccc1C(=O)Nc1ccc(OCC=C(Cl)Cl)cc1C(F)(F)F`, the figures for the mortality with Plutella xylostella [1] and in the assay with Plutella xylostella [2] were 69% and 25%, respectively.
As for `Cc1cc(OCC=C(Cl)Cl)ccc1NC(=O)c1cccc(I)c1C(=O)NC(C)(C)CS(C)(=O)=O`, the mortality with Plutella xylostella [1] came to 81%; in the assay with Plutella xylostella [2] it was 76%.
The corresponding values for `CC(C)(CS(C)(=O)=O)NC(=O)c1c(I)cccc1C(=O)Nc1ccc(OCC=C(Cl)Cl)c(Cl)c1` are 48% and 24%.
The corresponding values for `CC(C)(CS(C)(=O)=O)NC(=O)c1c(I)cccc1C(=O)Nc1ccc(OCC=C(Cl)Cl)c(C(F)(F)F)c1` are 0% and 0%.
The corresponding values for `Cc1cc(NC(=O)c2cccc(I)c2C(=O)NC(C)(C)CS(C)(=O)=O)ccc1OCC=C(Cl)Cl` are 19% and 8%.
For the molecule `CSCC(C)(C)NC(=O)c1c(I)cccc1C(=O)Nc1ccc(OCC=C(Cl)Cl)c(C(F)(F)F)c1`, the mortality in the assay on Plutella xylostella [1] and in the assay with Plutella xylostella [2] was 0% throughout.
Consider `CSCC(C)(C)NC(=O)c1c(I)cccc1C(=O)Nc1ccc(OCC=C(Cl)Cl)c(C)c1`, for which the figures for the mortality with Plutella xylostella [1] and in the assay on Plutella xylostella [2] were 10% and 0%, respectively.
The corresponding values for `COCC(C)(C)NC(=O)c1c(I)cccc1C(=O)Nc1ccc(OCC=C(Cl)Cl)cc1Cl` are 63% and 54%.
Consider `COCC(C)(C)NC(=O)c1c(I)cccc1C(=O)Nc1ccc(OCC=C(Cl)Cl)cc1F`, for which the mortality was determined as 61% with Plutella xylostella [1] and 47% in the assay with Plutella xylostella [2].
The corresponding values for `COCC(C)(C)NC(=O)c1c(I)cccc1C(=O)Nc1ccc(OCC=C(Cl)Cl)cc1C(F)(F)F` are 44% and 32%.
The corresponding values for `COCC(C)(C)NC(=O)c1c(I)cccc1C(=O)Nc1ccc(OCC=C(Cl)Cl)cc1C` are 72% and 47%.
The corresponding values for `COCC(C)(C)NC(=O)c1c(I)cccc1C(=O)Nc1ccc(OCC=C(Cl)Cl)c(Cl)c1` are 61% and 42%.
In the case of `COCC(C)(C)NC(=O)c1c(I)cccc1C(=O)Nc1ccc(OCC=C(Cl)Cl)c(C(F)(F)F)c1`, the figures for the mortality with Plutella xylostella [1] and with Plutella xylostella [2] were 44% and 42%, respectively.
For `COCC(C)(C)NC(=O)c1c(I)cccc1C(=O)Nc1ccc(OCC=C(Cl)Cl)c(C)c1`, the mortality with Plutella xylostella [1] turned out to be 70%; in the assay on Plutella xylostella [2], 42%.
The corresponding values for `CC(C)(C)NC(=O)c1c(I)cccc1C(=O)Nc1ccc(OCC=C(Cl)Cl)cc1` are 78% and 39%.
For the molecule `CC(C)(C)NC(=O)c1c(I)cccc1C(=O)Nc1ccc(OCC=C(Cl)Cl)cc1Cl`, the mortality with Plutella xylostella [3] is 91%; in the assay on Plutella xylostella [1] it was 100%; with Plutella xylostella [2], 90%; in the assay with Plutella xylostella [4] it was 65%.
The corresponding values for `CC(C)(C)NC(=O)c1c(I)cccc1C(=O)Nc1ccc(OCC=C(Cl)Cl)cc1F` are 0%, 100%, 81% and 0%.
As to `CC(C)(C)NC(=O)c1c(I)cccc1C(=O)Nc1ccc(OCC=C(Cl)Cl)cc1C(F)(F)F`, the results for the mortality in the assay on Plutella xylostella [1] and with Plutella xylostella [2] were 90% and 65%, respectively.
For the molecule `Cc1cc(OCC=C(Cl)Cl)ccc1NC(=O)c1cccc(I)c1C(=O)NC(C)(C)C`, the mortality in the assay on Plutella xylostella [3] was 58%; in the assay with Plutella xylostella [1] it was 100%; in the assay with Plutella xylostella [2], 69%; in the assay on Plutella xylostella [4], 32%.
For the molecule `CC(C)(C)NC(=O)c1c(I)cccc1C(=O)Nc1ccc(OCC=C(Cl)Cl)c(Cl)c1`, the results for the mortality in the assay on Plutella xylostella [1] and in the assay with Plutella xylostella [2] were 76% and 57%, respectively.
The corresponding values for `CC(C)(C)NC(=O)c1c(I)cccc1C(=O)Nc1ccc(OCC=C(Cl)Cl)c(C(F)(F)F)c1` are 8% and 0%.
The corresponding values for `Cc1cc(NC(=O)c2cccc(I)c2C(=O)NC(C)(C)C)ccc1OCC=C(Cl)Cl` are 25% and 0%.
The corresponding values for `CSCC(C)(C)NC(=O)c1c(I)cccc1C(=O)Nc1ccc(OCC=C(Cl)Cl)cc1` are 45% and 15%.
For the molecule `CSCC(C)(C)NC(=O)c1c(I)cccc1C(=O)Nc1ccc(OCC=C(Cl)Cl)cc1Cl`, the mortality amounted to 43% in the assay with Plutella xylostella [3], 100% in the assay on Plutella xylostella [2] and 0% in the assay on Plutella xylostella [4].
As to `CSCC(C)(C)NC(=O)c1c(I)cccc1C(=O)Nc1ccc(OCC=C(Cl)Cl)cc1F`, the mortality with Plutella xylostella [3] is listed as 0%; in the assay with Plutella xylostella [1], 100%; with Plutella xylostella [2], 58%; in the assay on Plutella xylostella [4] it was 0%.
For the molecule `CSCC(C)(C)NC(=O)c1c(I)cccc1C(=O)Nc1ccc(OCC=C(Cl)Cl)cc1C(F)(F)F`, the mortality in the assay on Plutella xylostella [1] is recorded as 62%; with Plutella xylostella [2], 57%.
For `CSCC(C)(C)NC(=O)c1c(I)cccc1C(=O)Nc1ccc(OCC=C(Cl)Cl)cc1C`, the mortality in the assay on Plutella xylostella [3] is listed as 19%; in the assay with Plutella xylostella [1] it was 95%; in the assay on Plutella xylostella [2] it was 90%; in the assay with Plutella xylostella [4], 10%.
`CSCC(C)(C)NC(=O)c1c(I)cccc1C(=O)Nc1ccc(OCC=C(Cl)Cl)c(Cl)c1`: the mortality in the assay with Plutella xylostella [1] is 81%; in the assay on Plutella xylostella [2] it was 38%.
Regarding `Cc1cc(C(F)(C(F)(F)F)C(F)(F)F)ccc1NC(=O)c1cccc(I)c1C(=O)NC(C)(C)CS(C)(=O)=O` [FLUBENDIAMIDE], the mortality in the assay on Plutella xylostella [3] turned out to be 100%; in the assay on Plutella xylostella [2], 100%; in the assay on Plutella xylostella [4], 67%.
With `FC(F)(F)c1ccc(OCCCOc2c(Cl)cc(OCC=C(Cl)Cl)cc2Cl)nc1` [PYRIDALYL], the mortality is given as 37% in the assay on Plutella xylostella [3], 100% in the assay with Plutella xylostella [2] and 13% in the assay on Plutella xylostella [4].
